From the kinase profiling compilation of Christmann-Franck et al. (2016)
“And” between values parts separate entries of the source, which are not always exact repeats. Identical values can stand only once.

Legend:
Experiment in all cases: KINOMEscan competition binding
Conditions in all cases: compound 10.0 µM
MAPK9 (human) = MAPK9 (human) (UniProt P45984)
FLT4 (human) = FLT4 (human) (UniProt P35916)
PAK4 (human) = PAK4 (human) (UniProt O96013)
[1] = system: MET (human), P08581 [M1250T]
MAP4K1 (human) = MAP4K1 (human) (UniProt Q92918)
MAP4K1 (human), sequence (Q92918 whole entry, looked up): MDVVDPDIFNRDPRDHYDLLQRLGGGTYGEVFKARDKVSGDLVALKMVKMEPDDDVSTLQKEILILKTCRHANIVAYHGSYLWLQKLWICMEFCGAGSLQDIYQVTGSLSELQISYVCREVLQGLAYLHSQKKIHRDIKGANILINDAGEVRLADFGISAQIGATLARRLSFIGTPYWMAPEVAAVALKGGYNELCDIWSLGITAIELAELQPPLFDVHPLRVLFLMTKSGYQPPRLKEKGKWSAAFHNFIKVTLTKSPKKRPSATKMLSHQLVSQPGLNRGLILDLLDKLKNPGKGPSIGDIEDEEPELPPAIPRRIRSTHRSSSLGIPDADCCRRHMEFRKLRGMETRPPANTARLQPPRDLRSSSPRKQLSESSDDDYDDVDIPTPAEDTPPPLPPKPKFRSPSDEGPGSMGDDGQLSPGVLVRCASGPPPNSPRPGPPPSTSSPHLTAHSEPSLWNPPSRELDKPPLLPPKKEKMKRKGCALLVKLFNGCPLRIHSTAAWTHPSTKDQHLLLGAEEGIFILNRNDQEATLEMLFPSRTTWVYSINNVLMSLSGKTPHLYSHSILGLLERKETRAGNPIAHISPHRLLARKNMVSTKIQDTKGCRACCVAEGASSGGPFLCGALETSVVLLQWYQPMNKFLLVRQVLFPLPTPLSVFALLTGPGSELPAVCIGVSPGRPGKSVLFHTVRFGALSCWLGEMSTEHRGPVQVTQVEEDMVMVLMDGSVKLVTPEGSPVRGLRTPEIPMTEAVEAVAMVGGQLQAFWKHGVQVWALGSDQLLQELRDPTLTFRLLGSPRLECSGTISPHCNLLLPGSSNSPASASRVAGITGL

RET (human) = RET (human) (UniProt P07949)
GAK (human) = GAK (human) (UniProt O14976)
FES (human) = FES (human) (UniProt P07332)
LIMK1 (human) = LIMK1 (human) (UniProt P53667)
TBK1 (human) = TBK1 (human) (UniProt Q9UHD2)
TBK1 (human), sequence (Q9UHD2 whole entry, looked up): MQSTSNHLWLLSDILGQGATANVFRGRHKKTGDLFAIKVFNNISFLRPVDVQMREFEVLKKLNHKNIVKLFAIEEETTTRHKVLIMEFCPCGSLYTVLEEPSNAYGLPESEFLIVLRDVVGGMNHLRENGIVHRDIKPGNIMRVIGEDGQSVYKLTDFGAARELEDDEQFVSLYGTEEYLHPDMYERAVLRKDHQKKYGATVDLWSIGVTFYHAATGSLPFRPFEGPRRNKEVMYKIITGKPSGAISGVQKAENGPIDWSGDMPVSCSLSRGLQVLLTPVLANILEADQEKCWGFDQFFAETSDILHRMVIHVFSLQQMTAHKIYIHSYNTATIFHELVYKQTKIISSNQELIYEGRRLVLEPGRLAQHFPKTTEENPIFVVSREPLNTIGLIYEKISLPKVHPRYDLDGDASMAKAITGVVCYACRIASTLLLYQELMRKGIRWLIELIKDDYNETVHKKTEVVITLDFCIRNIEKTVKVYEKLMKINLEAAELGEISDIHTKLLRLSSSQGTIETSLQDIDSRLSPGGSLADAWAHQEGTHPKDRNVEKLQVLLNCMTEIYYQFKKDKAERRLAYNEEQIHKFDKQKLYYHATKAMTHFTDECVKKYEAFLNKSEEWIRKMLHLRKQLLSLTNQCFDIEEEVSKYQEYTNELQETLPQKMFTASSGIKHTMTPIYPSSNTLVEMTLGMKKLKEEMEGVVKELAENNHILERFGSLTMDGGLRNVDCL

NTRK2 (human) = NTRK2 (human) (UniProt Q16620)
NTRK2 (human), sequence (Q16620 whole entry, looked up): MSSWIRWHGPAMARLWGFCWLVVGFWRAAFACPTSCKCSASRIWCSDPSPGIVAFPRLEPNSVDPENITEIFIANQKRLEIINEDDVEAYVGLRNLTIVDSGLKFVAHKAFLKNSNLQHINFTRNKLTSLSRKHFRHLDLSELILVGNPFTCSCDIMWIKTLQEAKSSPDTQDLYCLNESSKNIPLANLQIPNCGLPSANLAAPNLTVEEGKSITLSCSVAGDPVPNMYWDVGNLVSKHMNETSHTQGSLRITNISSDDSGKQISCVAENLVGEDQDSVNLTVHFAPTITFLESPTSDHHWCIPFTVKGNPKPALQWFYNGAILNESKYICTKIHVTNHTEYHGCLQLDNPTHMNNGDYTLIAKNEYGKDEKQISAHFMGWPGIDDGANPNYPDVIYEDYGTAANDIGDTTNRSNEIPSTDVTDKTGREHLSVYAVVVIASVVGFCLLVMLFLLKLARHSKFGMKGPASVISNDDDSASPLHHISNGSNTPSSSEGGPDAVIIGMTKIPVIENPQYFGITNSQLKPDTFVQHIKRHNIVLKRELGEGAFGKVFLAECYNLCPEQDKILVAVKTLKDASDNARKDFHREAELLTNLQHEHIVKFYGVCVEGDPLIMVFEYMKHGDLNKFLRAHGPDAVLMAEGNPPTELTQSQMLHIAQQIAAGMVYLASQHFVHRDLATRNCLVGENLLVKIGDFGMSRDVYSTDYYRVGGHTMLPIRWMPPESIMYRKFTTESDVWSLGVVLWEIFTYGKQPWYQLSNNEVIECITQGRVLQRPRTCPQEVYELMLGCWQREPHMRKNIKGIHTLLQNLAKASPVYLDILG

PRPF4B (human) = PRPF4B (human) (UniProt Q13523)
ERBB2 (human) = ERBB2 (human) (UniProt P04626)
HIPK4 (human) = HIPK4 (human) (UniProt Q8NE63)
HIPK4 (human), sequence (Q8NE63 whole entry, looked up): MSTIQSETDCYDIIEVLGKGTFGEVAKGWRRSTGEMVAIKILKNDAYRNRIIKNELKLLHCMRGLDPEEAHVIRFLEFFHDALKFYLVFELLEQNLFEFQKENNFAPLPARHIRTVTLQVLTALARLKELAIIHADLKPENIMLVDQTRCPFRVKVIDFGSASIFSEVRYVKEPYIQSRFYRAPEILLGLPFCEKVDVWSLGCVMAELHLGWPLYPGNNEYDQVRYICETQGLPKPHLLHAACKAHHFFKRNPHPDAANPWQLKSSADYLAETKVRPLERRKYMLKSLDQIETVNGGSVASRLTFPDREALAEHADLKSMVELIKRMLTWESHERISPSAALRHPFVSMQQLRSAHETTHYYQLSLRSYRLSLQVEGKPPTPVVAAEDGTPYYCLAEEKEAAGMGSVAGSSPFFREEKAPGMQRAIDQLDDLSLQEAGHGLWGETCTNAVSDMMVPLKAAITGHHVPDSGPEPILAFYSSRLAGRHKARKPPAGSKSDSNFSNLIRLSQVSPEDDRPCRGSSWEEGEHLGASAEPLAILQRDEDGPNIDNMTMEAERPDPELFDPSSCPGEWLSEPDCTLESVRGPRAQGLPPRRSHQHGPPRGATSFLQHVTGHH

MAPK10 (human) = MAPK10 (human) (UniProt P53779)
MLTK (human) = MLTK (human) (UniProt Q9NYL2)
MST4 (human) = MST4 (human) (UniProt Q9P289)
CSF1R (human) = CSF1R (human) (UniProt P07333)
CSF1R (human), sequence (P07333 whole entry, looked up): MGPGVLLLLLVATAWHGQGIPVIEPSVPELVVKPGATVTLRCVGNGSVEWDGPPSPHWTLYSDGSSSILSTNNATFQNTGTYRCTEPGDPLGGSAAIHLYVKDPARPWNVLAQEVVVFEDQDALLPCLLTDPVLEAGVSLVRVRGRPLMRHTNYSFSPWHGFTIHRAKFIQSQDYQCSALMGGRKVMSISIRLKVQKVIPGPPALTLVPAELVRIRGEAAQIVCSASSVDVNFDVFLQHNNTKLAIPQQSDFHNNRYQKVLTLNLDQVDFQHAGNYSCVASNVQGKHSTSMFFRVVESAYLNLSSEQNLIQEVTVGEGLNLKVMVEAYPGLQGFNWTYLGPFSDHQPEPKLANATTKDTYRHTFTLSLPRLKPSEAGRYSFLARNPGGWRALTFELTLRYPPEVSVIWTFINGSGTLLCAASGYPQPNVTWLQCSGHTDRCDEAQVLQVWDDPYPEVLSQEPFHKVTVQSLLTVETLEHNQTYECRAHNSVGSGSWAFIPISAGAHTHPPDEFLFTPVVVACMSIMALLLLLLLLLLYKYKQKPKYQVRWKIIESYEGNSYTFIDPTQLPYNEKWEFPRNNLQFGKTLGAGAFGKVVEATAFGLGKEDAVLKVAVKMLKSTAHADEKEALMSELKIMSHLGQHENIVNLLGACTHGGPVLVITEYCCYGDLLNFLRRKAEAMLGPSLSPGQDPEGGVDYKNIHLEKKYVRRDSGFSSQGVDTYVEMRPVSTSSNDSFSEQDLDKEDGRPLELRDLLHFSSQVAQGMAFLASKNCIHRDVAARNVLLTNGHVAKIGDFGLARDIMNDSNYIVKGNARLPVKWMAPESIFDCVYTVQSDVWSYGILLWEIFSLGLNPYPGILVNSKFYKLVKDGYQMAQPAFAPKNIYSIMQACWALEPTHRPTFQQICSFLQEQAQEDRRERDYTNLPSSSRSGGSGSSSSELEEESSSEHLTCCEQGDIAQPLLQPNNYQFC

CSNK1G2 (human) = CSNK1G2 (human) (UniProt P78368)
CDK14 (human) = CDK14 (human) (UniProt O94921)
MAP4K5 (human) = MAP4K5 (human) (UniProt Q9Y4K4)
SIK1 (human) = SIK1 (human) (UniProt P57059)
STK33 (human) = STK33 (human) (UniProt Q9BYT3)
PIP4K2B (human) = PIP4K2B (human) (UniProt P78356)
PIP4K2B (human), sequence (P78356 whole entry, looked up): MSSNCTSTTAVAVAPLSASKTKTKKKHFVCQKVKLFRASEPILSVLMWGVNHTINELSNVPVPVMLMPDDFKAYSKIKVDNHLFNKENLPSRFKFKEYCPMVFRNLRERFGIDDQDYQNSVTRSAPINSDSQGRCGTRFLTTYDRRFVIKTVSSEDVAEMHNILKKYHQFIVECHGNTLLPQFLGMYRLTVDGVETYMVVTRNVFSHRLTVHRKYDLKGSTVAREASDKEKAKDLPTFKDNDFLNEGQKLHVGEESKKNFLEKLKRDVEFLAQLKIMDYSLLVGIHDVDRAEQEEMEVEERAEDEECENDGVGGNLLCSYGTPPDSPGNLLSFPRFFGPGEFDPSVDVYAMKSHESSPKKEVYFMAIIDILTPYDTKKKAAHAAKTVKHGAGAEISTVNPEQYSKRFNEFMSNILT

SGK3 (human) = SGK3 (human) (UniProt Q96BR1)
FGFR4 (human) = FGFR4 (human) (UniProt P22455)
[2] = system: PIK3CA (human), P42336 [H1047L]
CDK13 (human) = CDK13 (human) (UniProt Q14004)
MAP2K3 (human) = MAP2K3 (human) (UniProt P46734)
BRSK2 (human) = BRSK2 (human) (UniProt Q8IWQ3)
GSK3A (human) = GSK3A (human) (UniProt P49840)
CDK17 (human) = CDK17 (human) (UniProt Q00537)
MAP4K2 (human) = MAP4K2 (human) (UniProt Q12851)
MYLK3 (human) = MYLK3 (human) (UniProt Q32MK0)
PLK3 (human) = PLK3 (human) (UniProt Q9H4B4)
PLK3 (human), sequence (Q9H4B4 whole entry, looked up): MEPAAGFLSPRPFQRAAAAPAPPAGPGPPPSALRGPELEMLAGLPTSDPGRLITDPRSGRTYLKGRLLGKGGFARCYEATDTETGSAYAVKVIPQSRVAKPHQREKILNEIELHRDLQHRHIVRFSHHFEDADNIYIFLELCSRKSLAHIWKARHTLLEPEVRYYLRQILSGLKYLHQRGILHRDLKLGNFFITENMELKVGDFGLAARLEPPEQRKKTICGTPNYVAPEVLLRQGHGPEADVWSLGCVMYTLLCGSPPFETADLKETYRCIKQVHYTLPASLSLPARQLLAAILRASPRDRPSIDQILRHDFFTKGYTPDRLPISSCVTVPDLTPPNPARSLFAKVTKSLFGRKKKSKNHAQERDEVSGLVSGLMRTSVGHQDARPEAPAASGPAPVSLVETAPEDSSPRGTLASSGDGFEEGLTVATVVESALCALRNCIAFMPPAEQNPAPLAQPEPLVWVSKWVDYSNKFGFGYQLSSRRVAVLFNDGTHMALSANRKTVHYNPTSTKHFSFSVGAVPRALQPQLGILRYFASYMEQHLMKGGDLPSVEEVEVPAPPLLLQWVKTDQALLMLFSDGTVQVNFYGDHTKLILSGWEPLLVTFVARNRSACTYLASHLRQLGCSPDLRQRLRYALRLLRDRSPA

MAP3K9 (human) = MAP3K9 (human) (UniProt P80192)
GRK7 (human) = GRK7 (human) (UniProt Q8WTQ7)
STK39 (human) = STK39 (human) (UniProt Q9UEW8)
PDGFRA (human) = PDGFRA (human) (UniProt P16234)
DAPK3 (human) = DAPK3 (human) (UniProt O43293)

Compound	kinase still bound, per cent of control (MAPK9 (human)) [%]	kinase still bound, per cent of control (FLT4 (human)) [%]	kinase still bound, per cent of control (PAK4 (human)) [%]	kinase still bound, per cent of control [1] [%]	kinase still bound, per cent of control (MAP4K1 (human)) [%]	kinase still bound, per cent of control (RET (human)) [%]	kinase still bound, per cent of control (GAK (human)) [%]	kinase still bound, per cent of control (FES (human)) [%]	kinase still bound, per cent of control (LIMK1 (human)) [%]	kinase still bound, per cent of control (TBK1 (human)) [%]	kinase still bound, per cent of control (NTRK2 (human)) [%]	kinase still bound, per cent of control (PRPF4B (human)) [%]	kinase still bound, per cent of control (ERBB2 (human)) [%]	kinase still bound, per cent of control (HIPK4 (human)) [%]	kinase still bound, per cent of control (MAPK10 (human)) [%]	kinase still bound, per cent of control (MLTK (human)) [%]	kinase still bound, per cent of control (MST4 (human)) [%]	kinase still bound, per cent of control (CSF1R (human))	kinase still bound, per cent of control (CSNK1G2 (human)) [%]	kinase still bound, per cent of control (CDK14 (human)) [%]	also measured
COc1cc2ncnc(Nc3cccc(Cl)c3)c2cc1OC	18	79	84	94	93	7	0	96	100	45	80	84	0.3	6.1	9.8	94	84	72% and 91%	83	88	kinase still bound, per cent of control (MAP4K5 (human)): 26%; kinase still bound, per cent of control (SIK1 (human)): 100%; kinase still bound, per cent of control (STK33 (human)): 73%; kinase still bound, per cent of control (PIP4K2B (human)): 97%; kinase still bound, per cent of control (SGK3 (human)): 65% and 84%; kinase still bound, per cent of control (FGFR4 (human)): 98%; kinase still bound, per cent of control [2]: 56%; kinase still bound, per cent of control (CDK13 (human)): 91%; kinase still bound, per cent of control (MAP2K3 (human)): 57%; kinase still bound, per cent of control (BRSK2 (human)): 45%; kinase still bound, per cent of control (GSK3A (human)): 84%; kinase still bound, per cent of control (CDK17 (human)): 79%; kinase still bound, per cent of control (MAP4K2 (human)): 36%; kinase still bound, per cent of control (MYLK3 (human)): 76%; kinase still bound, per cent of control (PLK3 (human)): 85%; kinase still bound, per cent of control (MAP3K9 (human)): 86%; kinase still bound, per cent of control (GRK7 (human)): 75%; kinase still bound, per cent of control (STK39 (human)): 57%; kinase still bound, per cent of control (PDGFRA (human)): 29%; kinase still bound, per cent of control (DAPK3 (human)): 35%
CNC(=O)Nc1ccc(-c2nc(N3CC4CCC(C3)O4)c3cnn(C4CCC5(CC4)OCCO5)c3n2)cc1	85	88	100	87	94	91	75	100	95	82	100	70	88	100	86	77	70	100%	95	94	kinase still bound, per cent of control (MAP4K5 (human)): 83%; kinase still bound, per cent of control (SIK1 (human)): 86%; kinase still bound, per cent of control (STK33 (human)): 82%; kinase still bound, per cent of control (PIP4K2B (human)): 100%; kinase still bound, per cent of control (SGK3 (human)): 100%; kinase still bound, per cent of control (FGFR4 (human)): 62%; kinase still bound, per cent of control [2]: 15%; kinase still bound, per cent of control (CDK13 (human)): 84%; kinase still bound, per cent of control (MAP2K3 (human)): 89%; kinase still bound, per cent of control (BRSK2 (human)): 100%; kinase still bound, per cent of control (GSK3A (human)): 82%; kinase still bound, per cent of control (CDK17 (human)): 100%; kinase still bound, per cent of control (MAP4K2 (human)): 100%; kinase still bound, per cent of control (MYLK3 (human)): 100%; kinase still bound, per cent of control (PLK3 (human)): 100%; kinase still bound, per cent of control (MAP3K9 (human)): 97%; kinase still bound, per cent of control (GRK7 (human)): 91%; kinase still bound, per cent of control (STK39 (human)): 100%; kinase still bound, per cent of control (PDGFRA (human)): 80%; kinase still bound, per cent of control (DAPK3 (human)): 100%
O=c1[nH]c2ccccc2n1C1CCN(Cc2ccc(-c3nc4cc5[nH]cnc5cc4nc3-c3ccccc3)cc2)CC1	91	100	74	28	51	76	88	100	86	70	85	81	86	72	71	92	100	99% and 76%	59	100	kinase still bound, per cent of control (MAP4K5 (human)): 64%; kinase still bound, per cent of control (SIK1 (human)): 100%; kinase still bound, per cent of control (STK33 (human)): 100%; kinase still bound, per cent of control (PIP4K2B (human)): 88%; kinase still bound, per cent of control (SGK3 (human)): 75% and 100%; kinase still bound, per cent of control (FGFR4 (human)): 100%; kinase still bound, per cent of control [2]: 69%; kinase still bound, per cent of control (CDK13 (human)): 98%; kinase still bound, per cent of control (MAP2K3 (human)): 100%; kinase still bound, per cent of control (BRSK2 (human)): 88%; kinase still bound, per cent of control (GSK3A (human)): 100%; kinase still bound, per cent of control (CDK17 (human)): 100%; kinase still bound, per cent of control (MAP4K2 (human)): 71%; kinase still bound, per cent of control (MYLK3 (human)): 100%; kinase still bound, per cent of control (PLK3 (human)): 94%; kinase still bound, per cent of control (MAP3K9 (human)): 96%; kinase still bound, per cent of control (GRK7 (human)): 98%; kinase still bound, per cent of control (STK39 (human)): 100%; kinase still bound, per cent of control (PDGFRA (human)): 83%; kinase still bound, per cent of control (DAPK3 (human)): 85%
